According to patent publication US20230124862A1, “BISMUTH THIOL COMPOUNDS AND COMPOSITIONS AND METHODS OF TREATING MICROBIAL CO-INFECTIONS” (Microbion Corporation, priority 2020, published 2023):
Several values for one entry are separate records, joined by “and”; a condition that tells them apart may be missing. Identical values can stand only once. Like-named read-outs stand apart in the source and are kept apart here.

Format: in vivo, beagle dogs
Procedure: Once adequately conditioned to the restraint device and face-masks, the animals are individually exposed to the test article aerosols. Animals receive a single face-mask inhalation exposure in a ramp study design to test article aerosols for up to 60 min. Animal observations during and post exposure determine the tolerance of inhaled BisEDT aerosols.
Blood Collections and Bioanalytical Analysis: Blood are collected for pharmacokinetic (PK) analysis prior to exposure, then at 4 hr (±5 min) post exposure, and again on Day 1, Day 2, Day 7 (pre- and 4 hr (±5 min)-post exposure), Day 8, Day 9, Day 10, Day 11, Day 12, Day 13, and Day 14. A total of 0.25 mL is collected at each timepoint. No PK blood is collected from the vehicle control (Group 1) animals; only animals exposed to BisEDT have blood collected for PK analysis. Collected samples are flash frozen without processing for shipment to Medpace for bioanalytical analysis. Additional blood is collected from all animals in all groups for hematology (1 mL) and clinical chemistry (1 mL) at baseline, Day 7 (pre-exposure), and again at euthanasia. Blood (2-2 mL) is collected from all animals at necropsy for coagulation analysis (d-Dimer, fibrinogen, PT, and PTT).
For clinical chemistry analyses, whole blood (1 mL) is placed into serum separator or clot tube and […] by centrifugation at a minimum of 1300 g at 2 to 8° C. for 10 (±1) min. Plasma samples are stored at −70 to −90° C. until analysis.
Clinical chemistry samples are analyzed on a Hitachi Modular Analytics Clinical Chemistry System (Roche Diagnostics, Indianapolis, Ind.).

Structure (SMILES): C1C[S][Bi]([S]CC[S][Bi]2[S]CC[S]2)[S]1 [BisEDT, Bismuth-1,2-ethanedithiol]
- GGT (dog 4002 Female): 3 IU/L
- GLOB (dog 4002 Female): 2.1 g/dL and 2.0 g/dL
- GLUC (dog 4002 Female): 106 mg/dL and 79 mg/dL
- K (dog 4002 Female): 5.3 mmo/L
- Na (dog 4002 Female): 153 mmo/L and 149 mmo/L
- TBIL (dog 4002 Female): 0.15 mg/dL
- TP (dog 4002 Female): 5.6 g/dL and 5.5 g/dL
- TRIG (dog 4002 Female): 34 mg/dL and 41 mg/dL
- AGR (dog 4003 Male): 1.8 and 1.6
- ALB (dog 4003 Male): 3.5 g/dL and 3.3 g/dL
- ALPK (dog 4003 Male): 146 IU/L and 129 IU/L
- ALT (dog 4003 Male): 40 IU/L and 23 IU/L
- AST (dog 4003 Male): 30 IU/L and 33 IU/L
- BUN (dog 4003 Male): 16 mg/dL and 15 mg/dL
- CA2 (dog 4003 Male): 11.2 mg/dL and 11.0 mg/dL
- CHOL (dog 4003 Male): 152 mg/dL and 176 mg/dL
- CREA (dog 4003 Male): 0.6 mg/dL and 0.7 mg/dL
- Cl (dog 4003 Male): 117 mmo/L and 112 mmo/L
- GGT (dog 4003 Male): 3 IU/L
- GLOB (dog 4003 Male): 1.9 g/dL and 2.1 g/dL
- GLUC (dog 4003 Male): 109 mg/dL and 81 mg/dL
- K (dog 4003 Male): 4.9 mmo/L
- Na (dog 4003 Male): 149 mmo/L and 147 mmo/L
- TBIL (dog 4003 Male): 0.15 mg/dL
- TP (dog 4003 Male): 5.4 g/dL
- TRIG (dog 4003 Male): 55 mg/dL and 53 mg/dL
- AGR (dog 4004 Female): 2.0 and 1.7 and 1.9
- ALB (dog 4004 Female): 3.4 g/dL and 3.3 g/dL
- ALPK (dog 4004 Female): 103 IU/L and 93 IU/L and 95 IU/L
- ALT (dog 4004 Female): 28 IU/L and 25 IU/L and 24 IU/L
- AST (dog 4004 Female): 33 IU/L and 38 IU/L and 31 IU/L
- BUN (dog 4004 Female): 13 mg/dL
- CA2 (dog 4004 Female): 10.8 mg/dL and 10.6 mg/dL
- CHOL (dog 4004 Female): 125 mg/dL and 124 mg/dL and 112 mg/dL
- CREA (dog 4004 Female): 0.6 mg/dL
- Cl (dog 4004 Female): 119 mmo/L and 115 mmo/L and 114 mmo/L
- GGT (dog 4004 Female): 3 IU/L
- GLOB (dog 4004 Female): 1.7 g/dL and 1.9 g/dL
- GLUC (dog 4004 Female): 102 mg/dL and 70 mg/dL and 96 mg/dL
- K (dog 4004 Female): 4.6 mmo/L and 5.1 mmo/L and 4.3 mmo/L
- Na (dog 4004 Female): 153 mmo/L and 148 mmo/L and 146 mmo/L
- TBIL (dog 4004 Female): 0.15 mg/dL
- TP (dog 4004 Female): 5.1 g/dL and 5.2 g/dL and 5.0 g/dL
- TRIG (dog 4004 Female): 53 mg/dL and 49 mg/dL and 44 mg/dL
- AGR (dogs, Grp 2 Avg): 1.8 and 2.2 and 2.1
- ALB (dogs, Grp 2 Avg): 3.3 g/dL and 3.5 g/dL and 3.6 g/dL
- ALPK (dogs, Grp 2 Avg): 186 IU/L and 126 IU/L and 116 IU/L
- ALT (dogs, Grp 2 Avg): 20 IU/L and 26 IU/L and 25 IU/L
- AST (dogs, Grp 2 Avg): 42 IU/L and 39 IU/L and 37 IU/L
- BUN (dogs, Grp 2 Avg): 13 mg/dL and 15 mg/dL
- CA2 (dogs, Grp 2 Avg): 10.9 mg/dL and 10.8 mg/dL
- CHOL (dogs, Grp 2 Avg): 153 mg/dL and 145 mg/dL and 133 mg/dL
- CREA (dogs, Grp 2 Avg): 0.7 mg/dL and 0.6 mg/dL
- Cl (dogs, Grp 2 Avg): 110 mmo/L and 114 mmo/L and 111 mmo/L
- GGT (dogs, Grp 2 Avg): 3 IU/L
- GLOB (dogs, Grp 2 Avg): 1.8 g/dL and 1.7 g/dL
- GLUC (dogs, Grp 2 Avg): 93 mg/dL and 98 mg/dL and 96 mg/dL
- K (dogs, Grp 2 Avg): 4.8 mmo/L and 5.1 mmo/L and 4.7 mmo/L
- Na (dogs, Grp 2 Avg): 149 mmo/L and 147 mmo/L and 148 mmo/L
- TBIL (dogs, Grp 2 Avg): 0.15 mg/dL
- TP (dogs, Grp 2 Avg): 5.1 g/dL and 5.2 g/dL and 5.4 g/dL
- TRIG (dogs, Grp 2 Avg): 52 mg/dL and 60 mg/dL and 47 mg/dL
- AGR (dogs, Grp 3 Avg): 2.2 and 1.9 and 2.4
- ALB (dogs, Grp 3 Avg): 3.4 g/dL and 3.5 g/dL and 3.6 g/dL
- ALPK (dogs, Grp 3 Avg): 153 IU/L and 113 IU/L and 149 IU/L
- ALT (dogs, Grp 3 Avg): 27 IU/L and 22 IU/L and 21 IU/L
- AST (dogs, Grp 3 Avg): 30 IU/L and 32 IU/L
- CA2 (dogs, Grp 3 Avg): 11.0 mg/dL and 10.7 mg/dL and 10.2 mg/dL
- CHOL (dogs, Grp 3 Avg): 113 mg/dL and 143 mg/dL and 126 mg/dL
- CREA (dogs, Grp 3 Avg): 0.6 mg/dL and 1.0 mg/dL
- Cl (dogs, Grp 3 Avg): 112 mmo/L and 110 mmo/L
- GGT (dogs, Grp 3 Avg): 3 IU/L
- GLOB (dogs, Grp 3 Avg): 1.6 g/dL and 1.9 g/dL and 1.5 g/dL
- GLUC (dogs, Grp 3 Avg): 106 mg/dL and 89 mg/dL and 58 mg/dL
- K (dogs, Grp 3 Avg): 5.1 mmo/L and 5.2 mmo/L and 5.9 mmo/L
- Na (dogs, Grp 3 Avg): 148 mmo/L and 146 mmo/L and 149 mmo/L
- TBIL (dogs, Grp 3 Avg): 0.15 mg/dL
- TP (dogs, Grp 3 Avg): 4.9 g/dL and 5.3 g/dL and 5.1 g/dL
- TRIG (dogs, Grp 3 Avg): 30 mg/dL and 39 mg/dL and 55 mg/dL
- AGR (dogs, Grp 4 Avg): 2.2 and 1.8 and 1.9
- ALB (dogs, Grp 4 Avg): 3.5 g/dL and 3.4 g/dL and 3.3 g/dL
- ALPK (dogs, Grp 4 Avg): 103 IU/L and 104 IU/L and 107 IU/L
- ALT (dogs, Grp 4 Avg): 28 IU/L and 26 IU/L
- AST (dogs, Grp 4 Avg): 33 IU/L and 39 IU/L
- BUN (dogs, Grp 4 Avg): 12 mg/dL and 13 mg/dL
- CA2 (dogs, Grp 4 Avg): 10.8 mg/dL and 10.7 mg/dL and 10.5 mg/dL
- CHOL (dogs, Grp 4 Avg): 139 mg/dL and 136 mg/dL and 112 mg/dL
- CREA (dogs, Grp 4 Avg): 0.7 mg/dL and 0.6 mg/dL
- Cl (dogs, Grp 4 Avg): 120 mmo/L and 116 mmo/L and 114 mmo/L
- GGT (dogs, Grp 4 Avg): 3 IU/L
- GLOB (dogs, Grp 4 Avg): 1.7 g/dL and 1.9 g/dL
- GLUC (dogs, Grp 4 Avg): 102 mg/dL and 76 mg/dL and 91 mg/dL
- K (dogs, Grp 4 Avg): 4.7 mmo/L and 5.0 mmo/L and 4.5 mmo/L
- Na (dogs, Grp 4 Avg): 153 mmo/L and 148 mmo/L and 146 mmo/L
- TBIL (dogs, Grp 4 Avg): 0.15 mg/dL
- TP (dogs, Grp 4 Avg): 5.2 g/dL and 5.3 g/dL and 5.0 g/dL
- TRIG (dogs, Grp 4 Avg): 51 mg/dL and 48 mg/dL and 42 mg/dL
